Results on 1 compound are retold here after US20140330261A1, “CATHETER FOR PERFORMING PHOTODYNAMIC ABLATION OF CARDIAC MUSCLE TISSUE VIA PHOTOCHEMICAL REACTION” (KEIO UNIVERSITY, priority 2010, published 2014).

Assay [1] relates to right ventricular tissue isolated from a Wistar rat. As to the kind of experiment: Electrical conduction blocking via photodynamic therapy in cardiac muscle tissue extirpated from a rat (ex vivo). The settings on record: 4.3 μg/ml in Tyrode's perfusion fluid for 2 hours; 670.8 nm laser, 150 mW/cm^2, 3.5 J/cm^2; 5 minutes after photodynamic therapy. As to the method:
The right ventricular tissue isolated from a Wistar rat was used as a sample. Talaporfin sodium was used as a photosensitive pigment. Talaporfin sodium was dissolved in a perfusion fluid at 4.3 μg/ml. Tyrode's solutions were used as perfusion fluids ([…] 37° C.). A semiconductor laser with a central wavelength of 670.8 nm was used as an excitation light source, and the irradiation was carried out at 150 mW/cm^2 and 3.5 J/cm^2. An experiment of electric conduction blocking in the cardiac muscle was carried out by the following procedures. 1. The heart was extirpated under deep anesthesia and the right ventricular wall was excised. 2. The excised tissue was subjected to perfusion in a Tyrode's solution comprising talaporfin sodium dissolved therein for 2 hours. 3. Three bipolar electrodes were positioned in cardiac muscle tissue. One such electrode was used for electrical stimulation (for conductance) and the two other electrodes were used for potential measurement (A and B). 4. A band-like laser beam was irradiated to the region between electrodes for potential measurement to perform photodynamic therapy. 5. Potentials at the electrodes for potential measurement A and B were measured during laser irradiation.

For assay [2], the system named is cardiac muscle tissue of the left auricle. In words: Acute experiment (open-heart surgery) using swine: verification of immediate conduction block by photodynamic therapy. The conditions noted are these: 10 mg/kg intravenously, irradiation 30 minutes after administration, 663 nm, 5.2 W/cm^2, 208 J/cm^2, irradiation line approximately 30 mm. The format is in vivo. As to the method:
Left auricular tissue obtained from a swine (body weight: 15.4 kg) was used as a sample. Talaporfin sodium was used as a photosensitive dye, and it was administered intravenously to the swine at 10 mg/kg of the body weight. The duration until light irradiation after the administration of the photosensitive dye was 30 minutes. Light irradiation was carried out using a semiconductor laser with a central wavelength of 663 nm at a power density of 5.2 W/cm^2, an energy density of 208 J/cm^2, and a spot size of 7 mm Φ. The experiment for verification of immediate conduction block using swine was carried out in accordance with the following procedure. 1. A swine was subjected to open-heart surgery under deep anesthesia and the left auricle was exposed. 2. Three bipolar electrodes were positioned in cardiac muscle tissue of the left auricle. One such electrode was used for electrical stimulation (for conductance) and the two other electrodes were used for potential measurement (A and B). 3. Talaporfin sodium was administered intravenously at 10 mg/kg. 4. The irradiation with a band-like laser beam was carried out in a dotted manner between electrodes for potential measurement 30 minutes after administration to perform photodynamic therapy. 5. The potential of an electrode for potential measurement B was measured during laser beam irradiation. 6. […]

As to `C=Cc1c(C)c2cc3nc(c(CC(=O)N[C@@H](CC(=O)O)C(=O)O)c4[nH]c(cc5nc(cc1[nH]2)C(C)=C5CC)c(C)c4C(=O)O)[C@@H](CCC(=O)O)[C@@H]3C` [Talaporfin sodium, talaporfin sodium], the “electric conductivity of cardiac muscle tissue at the site irradiated with light after photodynamic therapy” value in assay [1] was “electric conductivity of cardiac muscle tissue was lost”. Also, in assay [2], the “delay of electric conduction at electrode B after light irradiation” value was “approximately 35.5 ms”.
